Source: PubChem BioAssay (NCI)
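Results reflect a 48-hour exposure of cells in 96-well plates to compound at five concentrations. The concentration for 50% growth inhibition is given as GI50. At the TGI there is no net growth.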

Columns and labels:
Experiment in all cases: NCI tumour cell line growth inhibition, 48 h
A549 NSCLC = test system: A549 NSCLC
BT-549 breast = test system: BT-549 breast
K-562 leukemia = test system: K-562 leukemia
MDA-MB-231 breast = test system: MDA-MB-231 breast
NCI-H460 lung = test system: NCI-H460 lung
NCI/ADR-RES ovarian = test system: NCI/ADR-RES ovarian
RXF 393 renal = test system: RXF 393 renal
U251 CNS = test system: U251 CNS

Compound	GI50 (A549 NSCLC)	TGI (A549 NSCLC)	GI50 (BT-549 breast)	TGI (BT-549 breast)	GI50 (K-562 leukemia)	TGI (K-562 leukemia)	GI50 (MDA-MB-231 breast)	TGI (MDA-MB-231 breast)	GI50 (NCI-H460 lung)	TGI (NCI-H460 lung)	GI50 (NCI/ADR-RES ovarian)	TGI (NCI/ADR-RES ovarian)	GI50 (RXF 393 renal)	TGI (RXF 393 renal)	GI50 (U251 CNS)	TGI (U251 CNS)
CNC1=C(C(=O)OC)SC(c2ccccc2)(c2ccccc2)SC1	9.63 µM	> 100 µM	29.5 µM	> 100 µM	4.73 µM	> 100 µM	45.8 µM	> 100 µM	16.9 µM	> 100 µM	12 µM	70.2 µM	22 µM	> 100 µM	34.8 µM	> 100 µM
COC(=O)[C@]12CC[C@@H](C)[C@H](C)[C@@H]1C1=CC[C@@H]3[C@@]4(C)C(C=O)=C[C@@](C)(COS(C)(=O)=O)C4[C@H](O)C[C@@]3(C)[C@]1(C)CC2 (stereo not given in full)	2.64 µM	11 µM			0.797 µM	6.28 µM			2.15 µM	4.93 µM	2.03 µM	5.3 µM	1.53 µM	2.9 µM	1.65 µM	3.17 µM
COc1ccc(-c2cc(-c3cccc(NS(C)(=O)=O)c3)nc(N)c2C#N)cc1	0.109 µM	> 93.4 µM	0.127 µM	12.3 µM	0.0541 µM	> 100 µM	0.335 µM	5.14 µM	0.0871 µM	10.8 µM	0.0603 µM	1.1 µM	0.0506 µM	0.44 µM	0.0577 µM	19.3 µM
O=C1c2ccccc2-c2c1c1ccc([N+](=O)[O-])cc1c(=O)n2CCCNCCO	0.946 µM	8.75 µM			0.0359 µM	1.24 µM	1.95 µM	3.83 µM	0.025 µM	0.343 µM	0.65 µM	3.19 µM	1.87 µM	3.88 µM	0.0778 µM	1.43 µM
Cc1ccc(Nc2cc(C)nc(NCCCNc3ccnc4cc(Cl)ccc34)n2)cc1	1.65 µM	3.41 µM	1.63 µM	3.4 µM			1.38 µM	2.87 µM	1.57 µM	3.23 µM	1.73 µM	3.54 µM			1.32 µM	2.67 µM
Cc1cc(N(CCCNc2ccnc3cc(Cl)ccc23)Cc2ccc3c(c2)OCO3)nc(N2CCCCC2)n1	2.62 µM	7.37 µM	2.28 µM	5.95 µM			1.88 µM	4.06 µM			2.43 µM	8.03 µM	1.52 µM	3.12 µM	2.06 µM	4.65 µM
Nc1ccc(C(OC(=O)c2cc3ccccc3c(Cc3c(O)c(C(=O)OC(c4ccc(N)cc4)(c4ccc(N)cc4)c4ccc(N)cc4)cc4ccccc34)c2O)(c2ccc(N)cc2)c2ccc(N)cc2)cc1	0.774 µM	21.7 µM			0.682 µM	> 100 µM	2.8 µM	8.76 µM	0.728 µM	7.24 µM	15.5 µM	> 100 µM	1.83 µM	6.7 µM	0.248 µM	12.6 µM
CN(C)CCCCn1ccc2c1C(=O)c1c(c(O)c3ccccc3c1O)C2=O	18.9 µM	36.8 µM			1.78 µM	4.07 µM	17 µM	95.6 µM	19.2 µM	36.9 µM	13.3 µM	27.5 µM	2.18 µM	8.91 µM	17.9 µM	31.7 µM
